pEC50, pIC50: −log10 of the molar value. Where two headings read alike, the source gives them in different places.
Assays:
ErbB2 = ErbB2 (Homo sapiens, UniProt P04626); assay: ErbB2 phosphorylation in SKBR3 cells, dot blot (4G10); format: cell-based; design: endogenous in cells; host or cells: SKBR3; details: for Emax: SK-BR-3, read-out: ErbB2 activation 24 h Max inhibition, %; for effect on ErbB2 phosphorylation/activation (in words): SKBR3
Description: The ability of ZU and EB1 and their derivatives to inhibit ErbB2 activity in cellulo on a commonly used ErbB2-overexpressing breast cancer cell line SKBR3 was analyzed. SKBR3 were treated 24 h with increasing concentrations of the compounds (0.625-80 μM) and ErbB2 phosphorylation was addressed by dot blot analysis using an anti-phosphotyrosine antibody (clone 4G10). Quantifications show the result of two independent experiments.

[1] = molecular target: T1, FERM/ErbB2 interaction (Ezrin FERM domain / juxtamembrane ErbB2 peptide) (Homo sapiens, UniProt P04626); assay: AlphaScreen competition assay, FERM/ErbB2 interaction; format: binding; details: for Competition assay FERM-ErbB2 interaction Max inhibition, %: 20 h
T1 construct: made in house
Text: To validate that the Zuclopenthixol hydrochloride (ZU) and its derivatives interact with the juxtamembrane domain of ErbB2, we first analyzed in AlphaScreen® their efficiency to inhibit FERM/ErbB2 interaction in a dose-dependent manner and determined IC50 value. Furthermore, to test the selectivity of those compounds, we tested their ability to disrupt the interaction between the FERM domain and the known ERM binding motif contained in the juxtamembrane region of CD44 as a control.
AlphaScreen® technology was used to assess the interaction between the Ezrin binding motif (EBM) contained in the juxtamembrane portions of ErbB2 or CD44 with the Ezrin FERM domain. For this purpose the Ezrin FERM domain in fusion with Glutathione-S-Transferase (GST) has been coupled to GSH-coated acceptor beads. […] The AlphaScreen® reagents (Glutathione-coated Acceptor beads and streptavidin-coated Donor beads) were obtained from PerkinElmer.
The reaction was performed using white 384-well Optiplates (PerkinElmer, Whalham, Mass., USA) in 20 μl (total reaction volume) in a reaction buffer containing PBS, pH 7.4, 5 mM MgCl2 and 0.02% CHAPS. […] 10 μl of a mix solution containing 20 μg/ml Glutathione-coated Acceptor beads and 20 μg/ml streptavidin-coated Donor beads was then added to the wells and incubation was further proceeded for 40 min or overnight in the dark and at room temperature. Light signal was detected with the EnVision® multilabel plate reader (PerkinElmer). All experiments involving AlphaScreen® beads were performed under subdued lighting.

SKBR3 = assay: MTT cell proliferation, SKBR3; format: cell-based, human; details: for pEC50: read-out: Cell proliferation at d 3 SKBR3 EC50
Description: (§1) We then analyzed the ability of ZU and EB1 and their derivatives to decrease the ErbB2-dependent cell proliferation.
(§2) SKBR3, BT474, MCF-7, MDA-MB-231 and HBMEC cells were treated with the compounds as indicated, and cell proliferation was determined each day during 3 days using an MTT assay. Non treated cells were included as a negative control.
(§3) A solution of ZU in cis conformation was mixed to a solution of ZU in trans conformation (1:1) to obtain ZU in a 50/50 cis/trans conformation and their respective effects on ErbB2 activation and ErbB2-dependent cell proliferation were analyzed as previously by dot blot analysis using an anti-phosphotyrosine antibody (clone 4G10) and by MTT assays in the ErbB2-overexpressing breast cancer cell line SKBR3, BT474, or HBMEC as a control.

BT474 = assay: MTT cell proliferation, BT474; format: cell-based, human; details: for pEC50: read-out: Cell proliferation at d 3 BT474 EC50
Description: as §1, §2, §3

HBMEC = assay: MTT cell proliferation, HBMEC control cells; format: cell-based, human; details: for pEC50: read-out: Cell proliferation at d 3 HBMEC EC50; for EC50: read-out: Cell proliferation at d 3 HBMEC EC50, μM
Description: as §1, §2
The WT, V777L or V842I ErbB2-transfected cells were treated with 5 or 10 μM of ZU and cell proliferation was determined each day during 3 days using an MTT assay. Non transfected cells were included as a negative control.
The WT, V777L or V842I ErbB2-transfected cells were treated with 5 or 10 μM of EB1 and cell proliferation was determined each day during 3 days using an MTT assay. Non transfected cells were included as a negative control.

[2] = SKBR3, 24 h, read-out: ErbB2 activation 24 h EC50
[3] = SKBR3, 24 h, read-out: IC50 ErbB2 phosphorylation
[4] = Homo sapiens, SK-BR-3, 72 h, day 3
[5] = Homo sapiens, BT-474, 72 h, day 3

Compound: CN1CCN(CC/C=C2/c3ccccc3Sc3ccc(S(=O)(=O)N(C)C)cc32)CC1 [ZU2]
- Emax (ErbB2; SKBR3, 24 h, 0.625-80 μM): 74.2%
- pEC50 (ErbB2; [2]): 4.50
- pIC50 (ErbB2; [3]): 4.46 to 5.30
- inhibition of FERM/ErbB2 interaction (in words) [1]: inhibited FERM/ErbB2 interaction in a specific and dose-dependent manner
- Competition assay FERM-ErbB2 interaction Max inhibition, % [1]: 16%

Compound: CCOC(=O)C1CCN(CCC=C2c3ccccc3Oc3ccccc32)CC1 [ZU6, ethyl 1-(3-(9H-xanthen-9-ylidene)propyl)piperidine-4-carboxylate]
- Emax (ErbB2; SKBR3, 24 h, 0.625-80 μM): 36.2%
- effect on ErbB2 phosphorylation/activation (in words) (ErbB2): lower decrease
- pEC50 (ErbB2; [2]): 4.45

Compound: OCCN1CCN(CC/C=C2\c3ccccc3Sc3ccc(Cl)cc32)CC1 (single isomer, unassigned) [trans isomer]
- effect on SKBR3 proliferation (in words) (SKBR3; 10 μM): no significant inhibitory effect
- effect on BT474 proliferation (in words) (BT474; 10 μM): no significant inhibitory effect

Compound: O=c1c2ccccc2sn1-c1ccc(Cl)cc1 [EB3]
- effect on SKBR3 proliferation (in words) (SKBR3; 7 μM): did not significantly decreased
- pEC50 (SKBR3; [4]): 5.05
- Cell proliferation at d 3 SKBR3 Max inhibition, % (SKBR3; day 3): 63.5%
- Emax (ErbB2; SKBR3, 24 h, 0.625-80 μM): 66.4%
- pEC50 (ErbB2; [2]): 4.71
- pIC50 (ErbB2; [3]): 4.70 to 4.74
- reduction of BT474 proliferation (BT474; 7 μM, day 2): 30%
- pEC50 (BT474; [5]): 5.16
- Cell proliferation at d 3 BT474 Max inhibition, % (BT474; day 3): 82.7%
- effect on HBMEC proliferation (in words) (HBMEC; 7 μM): without any effect
- pEC50 (HBMEC; Homo sapiens, 72 h, day 3): 2.56
- Cell proliferation at d 3 HBMEC Max inhibition, % (HBMEC; day 3): 75.1%

Compound: CCOC(=O)C1CCN(CCC=C2c3ccccc3Sc3ccccc32)CC1 [ZU4, 9-(3-(4-(ethylacetate)piperidine)propylidene)-thioxanthene]
- Emax (ErbB2; SKBR3, 24 h, 0.625-80 μM): 27.5%
- effect on ErbB2 phosphorylation/activation (in words) (ErbB2): lower decrease
- pEC50 (ErbB2; [2]): 4.32
- inhibition of FERM/ErbB2 interaction (in words) [1]: inhibited FERM/ErbB2 interaction in a specific and dose-dependent manner
- Competition assay FERM-ErbB2 interaction Max inhibition, % [1]: 36%

Compound: Cc1ccc(-n2sc3ccccc3c2=O)cc1 [EB2]
- effect on SKBR3 proliferation (in words) (SKBR3; 5 μM): did not significantly decreased
- pEC50 (SKBR3; [4]): 5.03
- Cell proliferation at d 3 SKBR3 Max inhibition, % (SKBR3; day 3): 34.1%
- Emax (ErbB2; SKBR3, 24 h, 0.625-80 μM): 43.8%
- pEC50 (ErbB2; [2]): 4.74
- pIC50 (ErbB2; [3]): 4.70 to 4.74
- pEC50 (BT474; [5]): 4.93
- Cell proliferation at d 3 BT474 Max inhibition, % (BT474; day 3): 20%
- effect on HBMEC proliferation (in words) (HBMEC; 5 μM): without any effect
- pEC50 (HBMEC; Homo sapiens, 72 h, day 3): 4.94
- Cell proliferation at d 3 HBMEC Max inhibition, % (HBMEC; day 3): 29.5%

Compound: CC(=O)OCCN1CCN(CC/C=C2/c3ccccc3Sc3ccc(Cl)cc32)CC1 [ZU5, (Z)-2-(4-(3-(2-chloro-9H-thioxanthen-9-ylidene)propyl)piperazin-1-yl)ethylacetate]
- reduction of SKBR3 proliferation (SKBR3; 1 and 5 μM, day 3): 60%
- pEC50 (SKBR3; [4]): 5.46
- Cell proliferation at d 3 SKBR3 Max inhibition, % (SKBR3; day 3): 28.2%
- Emax (ErbB2; SKBR3, 24 h, 0.625-80 μM): 97.5%
- pEC50 (ErbB2; [2]): 4.36
- pIC50 (ErbB2; [3]): 4.46 to 5.30
- reduction of BT474 proliferation (BT474; 1 and 5 μM, day 3): 33%
- pEC50 (BT474; [5]): 4.75
- Cell proliferation at d 3 BT474 Max inhibition, % (BT474; day 3): 30.8%
- inhibition of FERM/ErbB2 interaction (in words) [1]: inhibited FERM/ErbB2 interaction in a specific and dose-dependent manner
- Competition assay FERM-ErbB2 interaction Max inhibition, % [1]: 41%
- effect on HBMEC proliferation (in words) (HBMEC; 1 and 5 μM): without any effect
- EC50 (HBMEC; Homo sapiens, 72 h): 21.9 µM
- Cell proliferation at d 3 HBMEC Max inhibition, % (HBMEC; day 3): 24.5%

Compound: FCCN1CCN(CC/C=C2/c3ccccc3Sc3ccc(C(F)(F)F)cc32)CC1 [ZUd, (Z)-1-(2-fluoroethyl)-4-(3-(2-(trifluoromethyl)-9H-thioxanthen-9-ylidene)propyl) Piperazine]
- reduction of SKBR3 proliferation (SKBR3; 20 μM, day 3): 86%
- pEC50 (SKBR3; [4]): 5.17
- Cell proliferation at d 3 SKBR3 Max inhibition, % (SKBR3; day 3): 86.4%
- pEC50 (ErbB2): 4.69
- pIC50 (ErbB2): 4.46 to 5.30
- Emax (ErbB2; SKBR3, 24 h, 0.625-80 μM): 51.4%
- reduction of BT474 proliferation (BT474; 20 μM, day 3): 86%
- pEC50 (BT474; [5]): 4.78
- Cell proliferation at d 3 BT474 Max inhibition, % (BT474; day 3): 86%
- Competition assay FERM-ErbB2 interaction Max inhibition, % [1]: 54%
- toxicity on control cells (in words) (HBMEC): non-specific toxic effects
- EC50 (HBMEC; Homo sapiens, 72 h): 16.3 µM
- inhibition at 20 µM (HBMEC; Homo sapiens, 72 h, 20 μM, day 3): 90%

Compound: O=C(O)C1CCN(CCC=C2c3ccccc3Sc3ccccc32)CC1 [ZUf, 1-(3-(9H-thioxanthen-9-ylidene)propyl)piperidine-4-carboxylic acid]
- Emax (ErbB2; SKBR3, 24 h, 0.625-80 μM): 0%
- effect on ErbB2 phosphorylation/activation (in words) (ErbB2): no effect
- Competition assay FERM-ErbB2 interaction Max inhibition, % [1]: 11%

Compound: 9-(3-(4-(2-hydroxyethyl)piperazinyl)propylidene)-thioxanthene [ZU3]
- reduction of SKBR3 proliferation (SKBR3; 20 μM): 30%
- Cell proliferation at d 3 SKBR3 Max inhibition, % (SKBR3; day 3): 32.6%
- pEC50 (SKBR3; day 3): 4.81
- ErbB2 activation 24 h Max inhibition, % (ErbB2; SKBR3, 24 h, 0.625-80 μM): 75.12%
- pEC50 (ErbB2; [2]): 4.49
- reduction of BT474 proliferation (BT474; 20 μM): 30%
- Cell proliferation at d 3 BT474 Max inhibition, % (BT474; day 3): 31.5%
- pEC50 (BT474; day 3): 5.38
- inhibition of FERM/ErbB2 interaction (in words) [1]: inhibited FERM/ErbB2 interaction in a specific and dose-dependent manner
- Competition assay FERM-ErbB2 interaction Max inhibition, % [1]: 28%
- effect on HBMEC proliferation (in words) (HBMEC; 20 μM): without any effect
- Cell proliferation at d 3 HBMEC Max inhibition, % (HBMEC; day 3): 0%

Compound: O=C(O)C1CCN(CCC=C2c3ccccc3Oc3ccccc32)CC1 [ZUe, 1-(3-(9H-xanthen-9-ylidene)propyl)piperidine-4-carboxylic acid]
- Emax (ErbB2; SKBR3, 24 h, 0.625-80 μM): 0%
- effect on ErbB2 phosphorylation/activation (in words) (ErbB2): no effect

Compound: NCCN1CCN(CC/C=C2/c3ccccc3Sc3ccc(C(F)(F)F)cc32)CC1 [ZUc, (Z)-2-(4-(3-(2-(trifluoromethyl)-9H-thioxanthen-9-ylidene)propyl)piperazin-1-yl) Ethanamine]
- pEC50 (SKBR3; [4]): 6.47
- Cell proliferation at d 3 SKBR3 Max inhibition, % (SKBR3; day 3): 78.9%
- pEC50 (ErbB2): 5.29
- pIC50 (ErbB2): 4.46 to 5.30
- Emax (ErbB2; SKBR3, 24 h, 0.625-80 μM): 90.8%
- pEC50 (BT474; [5]): 6.64
- Cell proliferation at d 3 BT474 Max inhibition, % (BT474; day 3): 94.9%
- Competition assay FERM-ErbB2 interaction Max inhibition, % [1]: 45%
- toxicity on control cells (in words) (HBMEC): non-specific toxic effects
- EC50 (HBMEC; Homo sapiens, 72 h): 0.14 µM
- Cell proliferation at d 3 HBMEC Max inhibition, % (HBMEC; day 3): 68.8%

Compound: CS(=O)(=O)CCNCc1ccc(-c2ccc3ncnc(Nc4ccc(OCc5cccc(F)c5)c(Cl)c4)c3c2)o1 [lapatinib, reference compound]
- inhibition of FERM/ErbB2 interaction (in words) [1]: did not inhibit

Source: patent US10766873B2, “Zuclopenthixol hydrochloride derivatives and Ebselen derivatives as ErbB2 inhibitors” (Centre National de la Recherche Scientifique (CNRS), priority 2016, dated 2020)
